According to patent US20120087968A1, “Antimicrobial Packaging Material and Methods of Making and Using the Same” (CRYOVAC, INC., priority 2010, published 2012):

Columns and labels:
[1] = system: E. coli (strain ATCC 4157); assay: Nutrient broth study of LAE materials (aerobic plate count of E. coli culture); type: cell-based; details: 0.5 g in 50 mL E. coli broth culture; for Aerobe Count Trial 1 CFU/g / Aerobe Count Trial 1 Log CFU/g / Aerobe Count Trial 1 Mean Log CFU/g / Aerobe Count Trial 2 CFU/g / Aerobe Count Trial 2 Log CFU/g / Aerobe Count Trial 2 Mean Log CFU/g: 45° C.; for growth of bacteria: over the 48 hour time period
Description: A culture of Difco nutrient broth (available from Weber Scientific, Hamilton, N.J., United States of America) and E. coli (strain ATCC® 4157™ KWIK STIK™, available from MicroBioLogics, Inc., St. Cloud, Minn., United States of America) was prepared by adding 1 tube of the E. coli to 400 mL of broth medium and incubating overnight at 37° C. Particularly, sample 1 was the positive control, sample 2 contained 0.5 g LAE HCl, sample 3 contained 0.5 g LAE monolaurate, and Sample 4 was the negative control.
Samples 1-4 were incubated at 45° C. and the number of E. coli counts was determined by plating about 1.0 mL of each sample onto aerobic plate count 3M Petrifilm™ plates (available from 3M Microbiology Products, St. Paul, Minn., United States of America) at 0, 24, and 48 hour time points. The experiments were conducted in duplicate.

[2] = system: E. coli counts / microbial contamination in beef purge; assay: Beef purge study of LAE materials (aerobic plate count); type: cell-based; details: 0.5 g in 10 mL beef purge
Description: About 30 mL of purge was isolated from two beef tenderloin packages and transferred to three test tubes (10 mL/tube). As set forth in Table 5 below, 0.5 g LAE HCl was added to the purge in sample 5 and 0.5 g LAE monolaurate was added to the purge in sample 6. Sample 7 was the positive control and contained no LAE derivative.
The samples were mixed using a vortex mixer and E. coli counts were determined by plating about 1.0 mL on aerobic plate count 3M Petrifilm™ plates for time 0 readings. The test tubes were then stored in a refrigerator (4° C.) and E. coli counts were determined by plating about 1.0 mL on aerobic plate count 3M Petrifilm™ at 24 and 48 hours. As set forth in Table 6, below, both LAE HCl and LAE Monolaurate eliminated over 99% of the microbial contamination at the 24 and 48 hour time points.

## CCCCCCCCCCCC(=O)N[C@@H](CCCN=C(N)N)C(=O)OCC.Cl [LAE HCl, ethyl n-lauroyl-L-arginate hydrochloride salt]
[1]; 0 hrs
  Aerobe Count Trial 1 CFU/g: 1 CFU/g
  Aerobe Count Trial 1 Log CFU/g: 0.00 Log CFU/g
  Aerobe Count Trial 1 Mean Log CFU/g: 0 Log CFU/g
  Aerobe Count Trial 2 CFU/g: 1 CFU/g
  Aerobe Count Trial 2 Log CFU/g: 0.00 Log CFU/g
  Aerobe Count Trial 2 Mean Log CFU/g: 0 Log CFU/g
[1]; 24 hrs
  Aerobe Count Trial 1 CFU/g: 1 CFU/g
  Aerobe Count Trial 1 Log CFU/g: 0.00 Log CFU/g
  Aerobe Count Trial 1 Mean Log CFU/g: 0 Log CFU/g
  Aerobe Count Trial 2 CFU/g: 1 CFU/g
  Aerobe Count Trial 2 Log CFU/g: 0.00 Log CFU/g
  Aerobe Count Trial 2 Mean Log CFU/g: 0 Log CFU/g
[1]; 48 hrs
  Aerobe Count Trial 1 CFU/g: 1 CFU/g
  Aerobe Count Trial 1 Log CFU/g: 0.00 Log CFU/g
  Aerobe Count Trial 1 Mean Log CFU/g: 0 Log CFU/g
  Aerobe Count Trial 2 CFU/g: 1 CFU/g
  Aerobe Count Trial 2 Log CFU/g: 0.00 Log CFU/g
  Aerobe Count Trial 2 Mean Log CFU/g: 0 Log CFU/g
[1]
  growth of bacteria: no growth of bacteria
[2]; 0 hrs
  % Reduction: 99.766%
  Avg. CFU/g: <1.000E+02 CFU/g
  Log CFU/g Mean: <2.00 Log CFU/g
[2]; 24 hrs at 4° C.
  % Reduction: 99.990%
  Avg. CFU/g: <1.000E+02 CFU/g
  Log CFU/g Mean: <2.00 Log CFU/g
[2]; 48 hrs at 4° C.
  % Reduction: 99.999%
  Avg. CFU/g: <1.000E+02 CFU/g
  Log CFU/g Mean: <2.00 Log CFU/g

## CCCCCCCCCCCC(=O)N[C@@H](CCCNC(=N)N)C(=O)OCC.CCCCCCCCCCCC(=O)O [LAE monolaurate, ethyl n-lauroyl-L-arginate laurate complex]
[1]; 0 hrs
  Aerobe Count Trial 1 CFU/g: 1 CFU/g
  Aerobe Count Trial 1 Log CFU/g: 0.00 Log CFU/g
  Aerobe Count Trial 1 Mean Log CFU/g: 0 Log CFU/g
  Aerobe Count Trial 2 CFU/g: 1 CFU/g
  Aerobe Count Trial 2 Log CFU/g: 0.00 Log CFU/g
  Aerobe Count Trial 2 Mean Log CFU/g: 0 Log CFU/g
[1]; 24 hrs
  Aerobe Count Trial 1 CFU/g: 1 CFU/g
  Aerobe Count Trial 1 Log CFU/g: 0.00 Log CFU/g
  Aerobe Count Trial 1 Mean Log CFU/g: 0 Log CFU/g
  Aerobe Count Trial 2 CFU/g: 1 CFU/g
  Aerobe Count Trial 2 Log CFU/g: 0.00 Log CFU/g
  Aerobe Count Trial 2 Mean Log CFU/g: 0 Log CFU/g
[1]; 48 hrs
  Aerobe Count Trial 1 CFU/g: 1 CFU/g
  Aerobe Count Trial 1 Log CFU/g: 0.00 Log CFU/g
  Aerobe Count Trial 1 Mean Log CFU/g: 0 Log CFU/g
  Aerobe Count Trial 2 CFU/g: 1 CFU/g
  Aerobe Count Trial 2 Log CFU/g: 0.00 Log CFU/g
  Aerobe Count Trial 2 Mean Log CFU/g: 0 Log CFU/g
[1]
  growth of bacteria: no growth of bacteria
[2]; 0 hrs
  % Reduction: 8.798%
  Avg. CFU/g: 3.890E+04 CFU/g
  Log CFU/g Mean: 4.59 Log CFU/g
[2]; 24 hrs at 4° C.
  % Reduction: 90.880%
  Avg. CFU/g: 8.913E+04 CFU/g
  Log CFU/g Mean: 4.95 Log CFU/g
[2]; 48 hrs at 4° C.
  % Reduction: 99.960%
  Avg. CFU/g: 2.818E+03 CFU/g
  Log CFU/g Mean: 3.45 Log CFU/g
